In patent US9708286B2, “Ingenol-3-acylates III and ingenol-3-carbamates” (LEO Laboratories Limited, priority 2010, dated 2017) one finds EC50 data, which are given here for 19 compounds.

Where only a bound is given, the exact number is not on record here.

Holding throughout (assay type): cell-based
Assay [1] concerns HeLa cells. Description: Necrosis assay. The conditions noted are these: Homo sapiens, HeLa, 0.5 h, read-out: HeLa necrosis EC50 range. The protocol: HeLa cells (ATCC CCL-002) were grown in minimal essential medium (Invitrogen catalog no. 42360) containing 10% fetal bovine serum, 100 IU/ml penicillin and 100 μg/ml streptomycin. 4,000-6,000 cells were seeded into 96-well black ViewPlates-plates, clear bottom, (Perkin Elmer) in 100 μl medium and incubated overnight. Compounds were dissolved and pre-diluted in DMSO in 96-well polypropylene plates (Greiner) in a concentration range of 15 μM to 600 μM. At the time of the experiment cell plates were placed on heating blocks at 37° C., medium was removed and 40 μl fresh, pre-warmed medium was added per well. Cells were incubated for 15 min before addition of compounds. In parallel, 3 μl of compounds were diluted with 197 μl growth medium on a Tecan freedom-EVO pipetting station using 250 μl/s pipetting speed, in order to ensure effective mixing of the highly concentrated compound solutions with the aqueous phase. These pre-dilution plates were then equilibrated on heating blocks at 37° C. for 10 min. 80 μl pre-diluted compound were transferred manually to the corresponding wells containing HeLa cells yielding compound concentrations of 10 μM to 400 μM. Control conditions were 1% DMSO in growth medium (100% viability) and 400 μM ingenol mebutate in growth medium (0% viability). Plates were incubated on the heating blocks at 37° C. for 30 min. At the end of the incubation 10 μl PrestoBlue reagent (Invitrogen) were added to each well, plates were sealed with black seal, followed by incubation at 37° C. for 10 min with gentle shaking (150 rpm). Subsequently, plates were placed at room temperature for 20-30 min. Plates were read immediately after on an Envision Fluorescence reader (Perkin Elmer) with excitation at 535 nm and emission at 630 nm. Test compound titration curves were fitted to a four-parameter sigmoidal curve after normalizing the effect of the test compound to the effect of the positive control (4 10^−4 M PEP0005/ingenol mebutate). AbsEC50 denotes the concentration of test compound producing 50% effect.

Assay [2] concerns PMN's (polymorphonuclear leukocytes). Description: Neutrophil oxidative burst. The conditions noted are these: Leukocyte, 40 min, read-out: Neutrophil oxidative burst Rel EC50 range, PMN from buffy coats, 40 min at RT, hydroethidine fluorescence; normalized to 5×10^−7 M PEP0005. How it is done: PMN's (polymorphonuclear leukocytes) were isolated and purified from fresh buffy coats by sequential sedimentation, density centrifugation and lysis of contaminating erythrocytes. Buffy coats were incubated with 2% methocel for 30-45 min to differentially sediment red blood cells. The leukocyte-rich supernatant was transferred to lymphoprep tubes to remove mononuclear cells by density centrifugation (400×g, 30 min). The pellet was resuspended and any remaining erythrocytes lysed using 0.2% NaCl for 30 sec before restoring isotonicity by the addition of 1.2% NaCl. This step was repeated until the cell pellet appears relatively free of red blood cells. Cells were resuspended in DPBS (Dulbecco's Phosphate Buffered Saline) (w.o. Ca^2+, Mg^2+) and the concentration adjusted to 1.4×10^6 cells/ml in HBSS (Hanks Balanced Salt solution) (w Ca^2+, Mg^2±) containing 0.1% BSA (Bovine Serum Albumin) and 5 mM glucose just prior to assay initiation. Titrated reference and test compounds were pre-mixed with HE (Hydroethidine) (10 μM final assay concentration) before addition to 96-well plates containing 2.5×10^5 cells. Following 40 min incubation at RT, changes in the respiratory burst was estimated by measuring fluorescence at 579 nm (excitation: 485 nm) using an Envision plate reader.
Test compound titration curves were fitted to a four-parameter sigmoidal curve after normalizing the effect of the test compound to the effect of the positive control (5×10^−7 M PEP0005). Rel EC50 denotes the concentration of test compound producing an effect that is midway between the fitted top and bottom. Abs EC50 is the concentration of test compound that provokes a response corresponding to 50% of the maximal effect associated with the positive control (5×10^−7 M PEP0005).

Assay [3] deals with Primary human epidermal keratinocytes, HeKa. Description: HeKa cytokine release (IL-8). The conditions noted are these: Homo sapiens, HEKa, 6 h, read-out: HeKa cytokine release (IL-8) Rel EC50 range. How it is done: Primary human epidermal keratinocytes, HeKa, were seeded (10.000 cells/well) in 96-well plates the day before the assay. Test compounds were diluted in DMSO (dimethyl sulfoxide) and further diluted in assay medium and pipetted into wells of 96 well-plates containing HeKa cells. The plates were incubated for 6 h at 37° C. in humidified air with 5% CO2. Plates were centrifuged briefly to spin down cells at 4° C., the supernatant was removed and analysed by Meso Scale Discovery (MSD) 4-spot cytokine assay (Pro-inflammatory II Ultra Sensitive kit, MSD, MD, USA). The MSD assay employs a sandwich immunoassay format where capture antibodies are coated in a patterned array on the bottom of the wells of a 4-Spot-Multi-MSD plate. Standard samples were incubated in the MULTI-SPOT plates as well, and the cytokine (IL-8) binds to its corresponding capture antibody spot. The cytokine level was quantitated on a SECTOR™ Imager using a cytokine-specific Detection Antibody labelled with MSD SULFO-TAG™ reagent.
Test compound titration curves were fitted to a four-parameter sigmoidal curve after normalizing the effect of the test compound to the effect of the positive control (1.5×10^−7 M PEP0005). Rel EC50 denotes the concentration of test compound producing an effect that is midway between the fitted top and bottom.

A word on the EC50: it is the concentration that produces a half-maximal response. For `CC1=C[C@]23C(=O)[C@@H](C=C(CO)[C@@H](O)[C@]2(O)[C@H]1OC(=O)c1nc(C)oc1C)[C@H]1[C@@H](C[C@H]3C)C1(C)C` [Compound 528, Ingenol 3-(2,5-dimethyloxazole-4-carboxylate)], the EC50 was more than 350000 nM in assay [1], 20 to 100 nM in assay [2] and more than 100 nM in assay [3].
On to `CC1=C[C@]23C(=O)[C@@H](C=C(CO)[C@@H](O)[C@]2(O)[C@H]1OC(=O)Nc1ccccc1)[C@H]1[C@@H](C[C@H]3C)C1(C)C` [Compound 711, Ingenol 3-(N-phenyl-carbamate)], for which the EC50 in assay [2] is 20 to 100 nM; in assay [3], less than 20 nM.
On to `CC1=C[C@]23C(=O)[C@@H](C=C(CO)[C@@H](O)[C@]2(O)[C@H]1OC(=O)c1cnnn1-c1ccccc1)[C@H]1[C@@H](C[C@H]3C)C1(C)C` [Compound 504, Ingenol 3-(3-phenyltriazole-4-carboxylate)], for which the EC50 in assay [2] and in assay [3] was 20 to 100 nM throughout.
For `CC1=C[C@]23C(=O)[C@@H](C=C(CO)[C@@H](O)[C@]2(O)[C@H]1OC(=O)N(C)C)[C@H]1[C@@H](C[C@H]3C)C1(C)C` [Compound 702, Ingenol 3-(N,N-dimethyl-carbamate)], the EC50 was 20 to 100 nM in assay [2] and more than 100 nM in assay [3].
For the compound `CC1=C[C@]23C(=O)[C@@H](C=C(CO)[C@@H](O)[C@]2(O)[C@H]1OC(=O)c1c(C(C)(C)C)noc1C)[C@H]1[C@@H](C[C@H]3C)C1(C)C` [Compound 549, Ingenol 3-(5-methyl-3-tert-butyl-isoxazole-4-carboxylate)], the EC50 in assay [2] and in assay [3] was less than 20 nM each time.
As for `CC1=C[C@]23C(=O)[C@@H](C=C(CO)[C@@H](O)[C@]2(O)[C@H]1OC(=O)N1CCOCC1)[C@H]1[C@@H](C[C@H]3C)C1(C)C` [Compound 703, Ingenol 3-(morpholine-4-carboxylate)], the EC50 in assay [2] was 20 to 100 nM; in assay [3], more than 100 nM.
In the case of `CC1=C[C@]23C(=O)[C@@H](C=C(CO)[C@@H](O)[C@]2(O)[C@H]1OC(=O)c1cn(C)c2ccccc12)[C@H]1[C@@H](C[C@H]3C)C1(C)C` [Compound 509, Ingenol 3-(1-methylindole-3-carboxylate)], the EC50 in assay [2] and in assay [3] was less than 20 nM in each case.
In the case of `CC1=C[C@]23C(=O)[C@@H](C=C(CO)[C@@H](O)[C@]2(O)[C@H]1OC(=O)NC1CCc2ccccc21)[C@H]1[C@@H](C[C@H]3C)C1(C)C` (stereo partly drawn) [Compound 712, Ingenol 3-(N-(indan-1-yl)-carbamate)], the EC50 in assay [2] and in assay [3] was 20 to 100 nM each time.
Turning to `CC1=C[C@]23C(=O)[C@@H](C=C(CO)[C@@H](O)[C@]2(O)[C@H]1OC(=O)c1c(C)cc(=O)oc1C)[C@H]1[C@@H](C[C@H]3C)C1(C)C` [Compound 573, Ingenol 3-(2,4-dimethyl-6-oxo-pyran-3-carboxylate)], the EC50 in assay [2] and in assay [3] was 20 to 100 nM each time.
`CC1=C[C@]23C(=O)[C@@H](C=C(CO)[C@@H](O)[C@]2(O)[C@H]1OC(=O)N1CCCC1C(F)(F)F)[C@H]1[C@@H](C[C@H]3C)C1(C)C` (single isomer, unassigned; isomer a) [Compound 740, Ingenol 3-(2-trifluoromethyl-pyrrolidine-1-carboxylate) (ISOMER A)]: the EC50 in assay [2] is less than 20 nM; in assay [3] it was 20 to 100 nM.
Consider `CC1=C[C@]23C(=O)[C@@H](C=C(CO)[C@@H](O)[C@]2(O)[C@H]1OC(=O)N1CCCC1)[C@H]1[C@@H](C[C@H]3C)C1(C)C` [Compound 704, Ingenol 3-(pyrrolidine-1-carboxylate)], for which the EC50 in assay [2] was 20 to 100 nM; in assay [3], more than 100 nM.
For `CC1=C[C@]23C(=O)[C@@H](C=C(CO)[C@@H](O)[C@]2(O)[C@H]1OC(=O)N1CCCCCC1)[C@H]1[C@@H](C[C@H]3C)C1(C)C` [Compound 728, Ingenol 3-(azepane-1-carboxylate)], in that order: 20 to 100 nM and 20 to 100 nM.
As for `CC1=C[C@]23C(=O)[C@@H](C=C(CO)[C@@H](O)[C@]2(O)[C@H]1OC(=O)NC1CCCCC1)[C@H]1[C@@H](C[C@H]3C)C1(C)C` [Compound 710, Ingenol 3-(N-cyclohexyl-carbamate)], the EC50 in assay [2] is less than 20 nM; in assay [3] it was 20 to 100 nM.
For `CC1=C[C@]23C(=O)[C@@H](C=C(CO)[C@@H](O)[C@]2(O)[C@H]1OC(=O)N1CCCCC1)[C@H]1[C@@H](C[C@H]3C)C1(C)C` [Compound 707, Ingenol 3-(piperidine-1-carboxylate)], in that order: less than 20 nM and 20 to 100 nM.
In the case of `CC1=C[C@]23C(=O)[C@@H](C=C(CO)[C@@H](O)[C@]2(O)[C@H]1OC(=O)c1c(C)nn(C(C)(C)C)c1C)[C@H]1[C@@H](C[C@H]3C)C1(C)C` [Compound 551, Ingenol 3-(1-tert-butyl-3,5-dimethyl-pyrazole-4-carboxylate)], the EC50 in assay [2] and in assay [3] was less than 20 nM in each case.
In the case of `CC1=C[C@]23C(=O)[C@@H](C=C(CO)[C@@H](O)[C@]2(O)[C@H]1OC(=O)N(C)Cc1ccccc1)[C@H]1[C@@H](C[C@H]3C)C1(C)C` [Compound 708, Ingenol 3-(N-benzyl-N-methyl-carbamate)], the EC50 was 20 to 100 nM in assay [2] and less than 20 nM in assay [3].
On to `CC1=C[C@]23C(=O)[C@@H](C=C(CO)[C@@H](O)[C@]2(O)[C@H]1OC(=O)c1c(C)nn(CC2CCOCC2)c1C)[C@H]1[C@@H](C[C@H]3C)C1(C)C` [Compound 561, Ingenol 3-(3,5-dimethyl-1-(tetrahydropyran-4-ylmethyl)pyrazole-4-carboxylate)], for which the 50% effective concentration (EC50) lay in the range of 150000 to 350000 nM in assay [1] and 20 to 100 nM in assay [2].
For `CC1=C[C@]23C(=O)[C@@H](C=C(CO)[C@@H](O)[C@]2(O)[C@H]1OC(=O)N(C)c1cc(C)nn1C)[C@H]1[C@@H](C[C@H]3C)C1(C)C` [Compound 719, Ingenol 3-(N-(2,5-dimethylpyrazol-3-yl)-N-methyl-carbamate)] the same measures were more than 350000 nM and more than 100 nM.
Regarding `CC1=C[C@]23C(=O)[C@@H](C=C(CO)[C@@H](O)[C@]2(O)[C@H]1OC(=O)N(C)c1ccccn1)[C@H]1[C@@H](C[C@H]3C)C1(C)C` [Compound 724, Ingenol 3-(N-methyl-N-(2-pyridyl)-carbamate)], the EC50 is more than 350000 nM in assay [1] and 20 to 100 nM in assay [3].
